Reference: patent US8987288B2, “Heterocyclic aminoberbamine derivatives, the preparation process and use thereof” (Hangzhou Bensheng Pharmaceutical Co., Ltd., priority 2010, dated 2015)
≈ marks a conversion by molar mass, not a printed value. Like-named read-outs stand apart in the source and are kept apart here.

Legend:
CaM = CaM (Homo sapiens, UniProt P0DP23); details: higher than that of berbamine; cited from earlier work
[1] = system: K562 leukemia cell line (chronic myeloid leukemia, CML); test: Leukemia cell growth inhibition, MTT, 72 h; assay type: cell-based, human
Excerpt: (§1) Leukemia cell lines; human K562 leukemia cell line (chronic myeloid leukemia, CML), K562/adr (drug-resistant chronic myeloid leukemia (CML), NB4 (acute promyelocytic leukemia, AML), Kasumi-1 (acute myeloid leukemia M2 type, AML-M2), Jurkat (acute lymphoblastic leukemia, ALL), H9 (acute lymphoblastic leukemia, ALL). Obtaining 6000 well-growing leukemia cells and inoculating them into wells of a 96-well cell culture plate. The culture medium is the 1640 cell culture medium containing 10% fetal bovine serum. After adding of the berbamine derivatives of different concentrations and mixing uniformly, the plate is placed in a carbon dioxide cell incubator (5% CO2) at 37° C. and incubated for 72 hours. Then the viable cell concentration is determined by the MTT method.

[2] = system: K562/adr (drug-resistant chronic myeloid leukemia); test: Leukemia cell growth inhibition, MTT, 72 h; assay type: cell-based, human
Excerpt: as §1

A549 (human lung cancer) = test: Solid tumor cell growth inhibition, MTT, 72 h; assay type: cell-based
Excerpt: (§2) Human solid tumor cell lines: HepG2 (human hepatocellular carcinoma, HCC), A549 (human lung cancer), MCF-7 (breast cancer), PANC-1 (pancreatic, cancer), PC-3 (prostate cancer). MG63 (osteosarcomas). AGS (gastric cancer), Huh7 (human hepatoma cell), Becap37 (human breast cancer cell), Hela (human cervical cancer cell), RKO (human colon adenocarcinoma cell), SW620 (human colon adenocarcinoma cell), SW480 (human colon cancer cell), MGC 803 (human gastric cancer cell). Obtaining 4000 well-growing human solid tumor cells and inoculating them into wells of a 96-well cell culture plate. The culture medium is DMEM High Glucose cell culture medium containing 10% fetal bovine serum. Alter adding the berbamine derivatives of different concentration and mixing uniformly, the plate is placed in a carbon dioxide cell incubator (5% CO2) at 37° C. and incubated for 72 hours. Then the viable cell concentration is determined by the MTT method, and the cell viability (%) alter drug treatment is calculated. In this experiment, the cell viability of control group (not treated with any compound) is set as 100%.

MG63 (osteosarcomas) = test: Solid tumor cell growth inhibition, MTT, 72 h; assay type: cell-based, human
Excerpt: as §2

[3] = system: red cell membrane CaM-independent Ca2++Mg2+ ATPase; details: stronger than that of berbamine; cited from earlier work
[4] = system: human leukemia Jurkat cells; details: cited from earlier work
[5] = system: NB4 (acute promyelocytic leukemia, AML); test: Leukemia cell growth inhibition, MTT, 72 h; assay type: cell-based; details: Homo sapiens, read-out: half inhibiting concentration (IC50 value) NB4
Excerpt: as §1

[6] = system: H9 (acute lymphoblastic leukemia, ALL); test: Leukemia cell growth inhibition, MTT, 72 h; assay type: cell-based; details: Homo sapiens, read-out: half inhibiting concentration (IC50 value) H9
Excerpt: as §1

[7] = system: Kasumi-1 (acute myeloid leukemia M2 type); test: Leukemia cell growth inhibition, MTT, 72 h; assay type: cell-based; details: Homo sapiens, read-out: half inhibiting concentration (IC50 value) Kasumi-1
Excerpt: as §1

[8] = system: MGC 803 (human gastric cancer cell); test: Solid tumor cell growth inhibition, MTT, 72 h; assay type: cell-based
Excerpt: as §2

[9] = system: Becap37 (human breast cancer cell); test: Solid tumor cell growth inhibition, MTT, 72 h; assay type: cell-based; details: read-out: half inhibiting concentration (IC50 value) Becap37
Excerpt: as §2

PC-3 (prostate cancer) = test: Solid tumor cell growth inhibition, MTT, 72 h; assay type: cell-based; details: Homo sapiens, read-out: half inhibiting concentration (IC50 value) PC-3
Excerpt: as §2

[10] = system: HepG2 (human hepatocellular carcinoma, HCC); test: Solid tumor cell growth inhibition, MTT, 72 h; assay type: cell-based
Excerpt: as §2

[11] = system: SW480 (human colon cancer cell); test: Solid tumor cell growth inhibition, MTT, 72 h; assay type: cell-based
Excerpt: as §2

[12] = system: Hela (human cervical cancer cell); test: Solid tumor cell growth inhibition, MTT, 72 h; assay type: cell-based; details: read-out: half inhibiting concentration (IC50 value) Hela
Excerpt: as §2

AGS (gastric cancer) = test: Solid tumor cell growth inhibition, MTT, 72 h; assay type: cell-based; details: Homo sapiens, read-out: half inhibiting concentration (IC50 value) AGS
Excerpt: as §2

[13] = system: PANC-1 (pancreatic cancer); test: Solid tumor cell growth inhibition, MTT, 72 h; assay type: cell-based; details: Homo sapiens, read-out: half inhibiting concentration (IC50 value) PANC-1
Excerpt: as §2

[14] = system: SW620 (human colon adenocarcinoma cell); test: Solid tumor cell growth inhibition, MTT, 72 h; assay type: cell-based; details: SW-620, read-out: half inhibiting concentration (IC50 value) SW620
Excerpt: as §2

[15] = system: Huh7 (human hepatoma cell); test: Solid tumor cell growth inhibition, MTT, 72 h; assay type: cell-based; details: Huh-7, read-out: half inhibiting concentration (IC50 value) Huh7
Excerpt: as §2

[16] = system: RKO (human colon adenocarcinoma cell); test: Solid tumor cell growth inhibition, MTT, 72 h; assay type: cell-based; details: read-out: half inhibiting concentration (IC50 value) RKO
Excerpt: as §2

MCF-7 (breast cancer) = test: Solid tumor cell growth inhibition, MTT, 72 h; assay type: cell-based, human
Excerpt: as §2

[17] = system: normal human peripheral blood leucocytes; details: 0.5 ug/mL to 10 ug/mL; cited from earlier work
[18] = system: RPMI 8226 (multiple myeloma); test: Multiple myeloma cell growth inhibition, MTT, 72 h; assay type: cell-based, human
Procedure: Multiple myeloma and lymphoma cell lines: RPM18226 (multiple myeloma). Obtaining 6000 well-growing abovesaid tumor cells and inoculating them into wells of a 96-well cell culture plate. The culture medium is the 1640 cell culture medium containing 10% fetal bovine serum. After adding the berbamine derivatives of different concentrations and mixing uniformly, the plate is placed in a carbon dioxide cell incubator (5% CO2) at 37° C. and incubated for 72 hours. Then the viable cell concentration is determined by the MTT method.

[19] = system: Jurkat (acute lymphoblastic leukemia, ALL); test: Leukemia cell growth inhibition, MTT, 72 h; assay type: cell-based, human
Excerpt: as §1

For `CCOCCCCOc1ccc2cc1Oc1ccc(cc1)C[C@H]1c3cc(c(OC)cc3CCN1C)Oc1c(OC)c(OC)cc3c1[C@@H](C2)N(C)CC3` [EBB, [O-(4-ethoxy)-butyl]-berbamine], the “specific coefficient as CaM antagonist relative to berbamine” value (CaM) is listed as 6.5 times.

With `COc1cccc(NC(=O)c2sc(NCCCOc3ccc4cc3Oc3ccc(cc3)CC3c5cc(c(OC)cc5CCN3C)Oc3c(OC)c(OC)cc5c3C(C4)N(C)CC5)nc2C)c1` (stereo not drawn) [Compound (3), 12-O-(3-(5-(3-methoxy-phenyl-carbamoyl)-4-methyl-thiazol-2-amino)-propyl)-Berbamine] the “improvement of anti-K562 activity compared with berbamine” value ([1]; vs berbamine) was 8 fold and the “improvement of anti-K562 activity compared with berbamine (second mention, K562/adr meant)” value ([2]; vs berbamine) was 8 fold.

For `COc1cccc(NC(=O)c2ccc(NCCCOc3ccc4cc3Oc3ccc(cc3)CC3c5cc(c(OC)cc5CCN3C)Oc3c(OC)c(OC)cc5c3C(C4)N(C)CC5)nc2)c1` (stereo not drawn) [Compound (6), 12-O-(3-(5-(3-methoxy-phenyl-carbamoyl)-pyridin-2-amino)-propyl)-berbamine], the “improvement of anti-A549 (human lung cancer) cell activity compared with berbamine” value (A549 (human lung cancer); vs berbamine) was “more than 14 fold”.

In the case of `COc1cc2c3cc1Oc1c(OC)c(OC)cc4c1C(Cc1ccc(OCCCNc5ncc(C(=O)Nc6c(C)cccc6Cl)s5)c(c1)Oc1ccc(cc1)CC3N(C)CC2)N(C)CC4` (stereo not drawn) [Compound (2), 12-O-(3-(5-(2-chloro-6-methyl-phenyl-carbamoyl)-thiazol-2-amino)-propyl)-berbamine], the “improvement of anti-MG63 (osteosarcoma) cell activity compared with berbamine” value (MG63 (osteosarcomas); vs berbamine) is reported as “more than 12 fold”.

In the case of O-Dansyl berbamine [DB], the “inhibitory activity on red cell membrane CaM-independent Ca2++Mg2+ ATPase relative to berbamine” value [3] is given as 25 times.

In the case of `COc1cc2c3cc1Oc1c(OC)c(OC)cc4c1[C@@H](Cc1ccc(O)c(c1)Oc1ccc(cc1)C[C@@H]3N(C)CC2)N(C)CC4` [BBM, 6,6′,7-trimethoxy-2,2′-dimethylberbaman-12-ol], the cell viability rate ([4]; drug concentration 0.5 ug/mL) is listed as 93.69%, the cell viability rate ([4]; drug concentration 10 ug/mL) is listed as 14.85% and the IC50 [5] is listed as 3 µg/mL (≈ 4.93 µM). It also gave an IC50 [6] of 5.04 µg/mL (≈ 8.28 µM), an IC50 [7] of 1.3 µg/mL (≈ 2.14 µM) and an IC50 ([8]; Homo sapiens, MGC-803, 72 hours, MTT, read-out: half inhibiting concentration (IC50 value) MGC803) of 4.96 µg/mL (≈ 8.15 µM). It also gave an IC50 [9] of 7.31 µg/mL (≈ 12 µM), an IC50 (PC-3 (prostate cancer)) of 3.7 µg/mL (≈ 6.08 µM) and an IC50 ([10]; Homo sapiens, HepG2, 72 hours, MTT, read-out: half inhibiting concentration (IC50 value) Hepg2) of 6.67 µg/mL (≈ 11 µM). The IC50 ([11]; Homo sapiens, SW480, 72 hours, MTT, read-out: half inhibiting concentration (IC50 value) SW480) was 5.74 µg/mL (≈ 9.43 µM), the IC50 [12] was 5.04 µg/mL (≈ 8.28 µM) and the IC50 (AGS (gastric cancer)) was 5.84 µg/mL (≈ 9.59 µM). It also gave an IC50 [13] of 12.7 µg/mL (≈ 20.9 µM), an IC50 (A549 (human lung cancer); Homo sapiens, A549, 72 hours, MTT, read-out: half inhibiting concentration (IC50 value) A549) of 5.38 µg/mL (≈ 8.84 µM) and an IC50 [14] of 1.1 µg/mL (≈ 1.81 µM). It also gave an IC50 [15] of 7.63 µg/mL (≈ 12.5 µM), an IC50 [16] of 2.34 µg/mL (≈ 3.84 µM) and an IC50 (MCF-7 (breast cancer); Homo sapiens, MCF7, 72 hours, MTT, read-out: half inhibiting concentration (IC50 value) MCF-7) of 20.6 µg/mL (≈ 33.8 µM). The IC50 (MG63 (osteosarcomas); Homo sapiens, MG-63, 72 hours, MTT, read-out: half inhibiting concentration (IC50 value) MG63) was 9.18 µg/mL (≈ 15.1 µM), the “cytotoxicity on normal human peripheral blood leucocytes” value [17] was “no obvious cytotoxicity” and the IC50 ([18]; Homo sapiens, RPMI-8226, 72 hours, MTT, read-out: half inhibiting concentration (IC50 value) RPMI 8226) was 1.17 µg/mL (≈ 1.92 µM). It also gave an IC50 ([1]; Homo sapiens, K562, 72 hours, MTT, read-out: half inhibiting concentration (IC50 value) K562) of 3 µg/mL (≈ 4.93 µM), an IC50 ([19]; Homo sapiens, Jurkat, 72 hours, MTT, read-out: half inhibiting concentration (IC50 value) Jurkat) of 1.9 µg/mL (≈ 3.12 µM) and an IC50 ([2]; Homo sapiens, K562/Adr, 72 hours, MTT, read-out: half inhibiting concentration (IC50 value) K562adr) of 3.53 µg/mL (≈ 5.8 µM).

In the case of `COc1cccc(NC(=O)c2cnc(NCCCOc3ccc4cc3Oc3ccc(cc3)CC3c5cc(c(OC)cc5CCN3C)Oc3c(OC)c(OC)cc5c3C(C4)N(C)CC5)cn2)c1` (stereo not drawn) [Compound (4), 12-O-(3-(5-(3-methoxy-phenyl-carbamoyl)-pyrazin-2-amino)-propyl)-berbamine], the “improvement of anti-MGC 803 cell activity compared with berbamine” value ([8]; vs berbamine) is reported as “more than 8 fold”, the “improvement of anti-HepG2 cell activity compared with berbamine” value ([10]; vs berbamine) is reported as “about 9 fold” and the “improvement of anti-SW480 cell activity compared with berbamine” value ([11]; vs berbamine) is reported as “more than 6 fold”. For the same compound, the “improvement of anti-MCP-7 (breast cancer) cell activity compared with berbamine” value (MCF-7 (breast cancer); vs berbamine) was “more than 26 fold”, the “improvement of anti-RPMI8226 (multiple myeloma) cell line activity compared with berbamine” value ([18]; vs berbamine) was “more than 117 fold” and the “improvement of anti-Jurkat acute lymphoblastic leukemia activity compared with berbamine” value ([19]; vs berbamine) was “more than 13 fold”.
